≈ marks a conversion by molar mass, not a printed value. Calls of active or inactive are those of the source. No cut-off for these calls is given here. Bridge positions count the residues as written; N and C are the ends. Square brackets hold non-standard residues; d marks the D form. Peptide text beside a SMILES is read from it. * marks the point of attachment. Phe(3,5-F2) = N[C@@H](Cc1cc(F)cc(F)c1)C(=O)O; Pro(4R-Me) = C[C@H]1CN[C@H](C(=O)O)C1; aThr = C[C@H](O)[C@H](N)C(=O)O; Pip = O=C(O)[C@@H]1CCCCN1; X1 = CCC/C=C/C=C/C(=O)*
Experiments:
[1] = molecular target: T1, ATP-dependent Clp protease proteolytic subunit (Staphylococcus aureus (strain NCTC 8325)) (UniProt Q2G036); experiment: Activation of N-terminal His-tagged recombinant Staphylococcus aureus ClpP expressed in Escherichia coli SG1146(DE3) assessed as degradation of casein-FITC at 100 uM preincubated for 10 mins followed by casein addition measured for over 100 mins by fluorescence based assay; conditions: time > 110.0 min
T1 sequence (whole entry): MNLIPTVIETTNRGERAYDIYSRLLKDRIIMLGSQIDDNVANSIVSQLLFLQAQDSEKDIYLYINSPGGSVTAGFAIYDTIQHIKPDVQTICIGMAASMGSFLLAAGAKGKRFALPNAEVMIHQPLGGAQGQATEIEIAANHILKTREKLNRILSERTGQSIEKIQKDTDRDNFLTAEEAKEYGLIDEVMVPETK

Streptococcus pneumoniae = experiment: Activation of recombinant Streptococcus pneumoniae ClpP extracted from Escherichia coli SG1146(DE3) assessed as degradation of casein-FITC at 100 uM preincubated for 10 mins followed by casein addition measured for over 100 mins by fluorescence based assay; conditions: time > 110.0 min
[2] = molecular target: ATP-dependent Clp protease proteolytic subunit, mitochondrial (Homo sapiens) (UniProt Q16740); experiment: Activation of N-terminal His-tagged recombinant human ClpP expressed in Escherichia coli SG1146(DE3) assessed as degradation of casein-FITC at 100 uM preincubated for 10 mins followed by casein addition measured for over 100 mins by fluorescence based assay; conditions: time > 110.0 min
[3] = molecular target: T2, ATP-dependent Clp protease proteolytic subunit (Escherichia coli (strain K12), UniProt P0A6G7); experiment: Activation of N-terminal His-tagged recombinant Escherichia coli ClpP expressed in Escherichia coli SG1146(DE3) assessed as degradation of casein-FITC preincubated for 10 mins followed by casein addition measured for over 100 mins by fluorescence based assay
[4] = molecular target: T3, ATP-dependent Clp protease proteolytic subunit (Neisseria gonorrhoeae, UniProt Q5F914); experiment: Activation of N-terminal His-tagged recombinant Neisseria gonorrhoeae ClpP expressed in Escherichia coli SG1146(DE3) assessed as degradation of casein-FITC preincubated for 10 mins followed by casein addition measured for over 100 mins by fluorescence based assay
[5] = molecular target: T2, ATP-dependent Clp protease proteolytic subunit; experiment: Binding affinity to His-tagged recombinant Escherichia coli ClpP extracted from Escherichia coli SG1146(DE3) using casein as substrate assessed as apparent dissociation constant incubated upto 120 mins by SDS-PAGE analysis; conditions: read-out: Kd(app)
[6] = molecular target: T3, ATP-dependent Clp protease proteolytic subunit; experiment: Binding affinity to His-tagged recombinant Neisseria gonorrhoeae ClpP extracted from Escherichia coli SG1146(DE3) using casein as substrate assessed as apparent dissociation constant incubated upto 120 mins by SDS-PAGE analysis; conditions: read-out: Kd(app)
[7] = Cytotoxicity against wild-type HEK293-T-REx cells assessed as cell viability upto 100 uM incubated for 3 days by AlamarBlue assay; assay type: toxicity, cell-based; conditions: human, 72 h, time 3 day
Neisseria gonorrhoeae [8] = experiment: Antibacterial activity against Neisseria gonorrhoeae MS11 measured after 16 to 18 hrs by OD based assay; assay type: functional; conditions: time 16-18 hrs
Neisseria gonorrhoeae [9] = experiment: Antibacterial activity against Neisseria gonorrhoeae FA19 measured after 16 to 18 hrs by OD based assay; assay type: functional; conditions: time 16-18 hrs
Neisseria gonorrhoeae [10] = experiment: Antibacterial activity against Neisseria gonorrhoeae WHO G measured after 16 to 18 hrs by OD based assay; assay type: functional; conditions: time 16-18 hrs
Neisseria gonorrhoeae [11] = experiment: Antibacterial activity against Neisseria gonorrhoeae WHO K measured after 16 to 18 hrs by OD based assay; assay type: functional; conditions: time 16-18 hrs
Neisseria gonorrhoeae [12] = experiment: Antibacterial activity against Neisseria gonorrhoeae WHO L measured after 16 to 18 hrs by OD based assay; assay type: functional; conditions: time 16-18 hrs
Neisseria gonorrhoeae [13] = experiment: Antibacterial activity against Neisseria gonorrhoeae WHO M measured after 16 to 18 hrs by OD based assay; assay type: functional; conditions: time 16-18 hrs
Neisseria gonorrhoeae [14] = experiment: Antibacterial activity against Neisseria gonorrhoeae WHO N measured after 16 to 18 hrs by OD based assay; assay type: functional; conditions: time 16-18 hrs
Neisseria gonorrhoeae [15] = experiment: Antibacterial activity against Neisseria gonorrhoeae WHO P measured after 16 to 18 hrs by OD based assay; assay type: functional; conditions: time 16-18 hrs
Neisseria gonorrhoeae [16] = experiment: Antibacterial activity against Neisseria gonorrhoeae WHO V measured after 16 to 18 hrs by OD based assay; assay type: functional; conditions: time 16-18 hrs
Neisseria gonorrhoeae [17] = experiment: Antibacterial activity against Neisseria gonorrhoeae WHO X measured after 16 to 18 hrs by OD based assay; assay type: functional; conditions: time 16-18 hrs
Neisseria gonorrhoeae [18] = experiment: Antibacterial activity against Neisseria gonorrhoeae WHO Y measured after 16 to 18 hrs by OD based assay; assay type: functional; conditions: time 16-18 hrs
Neisseria gonorrhoeae [19] = experiment: Antibacterial activity against Neisseria gonorrhoeae WHO Z measured after 16 to 18 hrs by OD based assay; assay type: functional; conditions: time 16-18 hrs
Neisseria meningitidis [20] = experiment: Antibacterial activity against wild-type Neisseria meningitidis H44/76 measured after 16 to 18 hrs by OD based assay; assay type: functional; conditions: time 16-18 hrs
Neisseria meningitidis [21] = experiment: Antibacterial activity against Neisseria meningitidis H44/76 harboring deltaclpP measured after 16 to 18 hrs by OD based assay; assay type: functional; conditions: time 16-18 hrs
Neisseria meningitidis [22] = experiment: Antibacterial activity against Neisseria meningitidis EG329 measured after 16 to 18 hrs by OD based assay; assay type: functional; conditions: time 16-18 hrs
Neisseria meningitidis [23] = experiment: Antibacterial activity against Neisseria meningitidis BZ169 measured after 16 to 18 hrs by OD based assay; assay type: functional; conditions: time 16-18 hrs
Neisseria meningitidis [24] = experiment: Antibacterial activity against Neisseria meningitidis NGPB24 measured after 16 to 18 hrs by OD based assay; assay type: functional; conditions: time 16-18 hrs
Neisseria meningitidis [25] = experiment: Antibacterial activity against Neisseria meningitidis AK50 measured after 16 to 18 hrs by OD based assay; assay type: functional; conditions: time 16-18 hrs
Neisseria meningitidis [26] = experiment: Antibacterial activity against Neisseria meningitidis 88/03415 measured after 16 to 18 hrs by OD based assay; assay type: functional; conditions: time 16-18 hrs
Neisseria meningitidis [27] = experiment: Antibacterial activity against Neisseria meningitidis BZ133 measured after 16 to 18 hrs by OD based assay; assay type: functional; conditions: time 16-18 hrs
Neisseria meningitidis [28] = experiment: Antibacterial activity against Neisseria meningitidis SWZ107 measured after 16 to 18 hrs by OD based assay; assay type: functional; conditions: time 16-18 hrs
Neisseria meningitidis [29] = experiment: Antibacterial activity against Neisseria meningitidis NGF26 measured after 16 to 18 hrs by OD based assay; assay type: functional; conditions: time 16-18 hrs
Neisseria meningitidis [30] = experiment: Antibacterial activity against Neisseria meningitidis NG144/82 measured after 16 to 18 hrs by OD based assay; assay type: functional; conditions: time 16-18 hrs

ATP-dependent Clp protease proteolytic subunit, mitochondrial (Homo sapiens), sequence (Q16740 whole entry): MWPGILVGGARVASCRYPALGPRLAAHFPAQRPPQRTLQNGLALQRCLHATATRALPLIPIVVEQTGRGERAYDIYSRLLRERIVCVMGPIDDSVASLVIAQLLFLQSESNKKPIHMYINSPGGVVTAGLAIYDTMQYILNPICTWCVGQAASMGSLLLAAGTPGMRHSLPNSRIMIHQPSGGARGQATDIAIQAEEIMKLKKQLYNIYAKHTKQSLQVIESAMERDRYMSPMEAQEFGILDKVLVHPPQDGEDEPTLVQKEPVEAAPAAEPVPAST
T3 sequence (Q5F914 whole entry): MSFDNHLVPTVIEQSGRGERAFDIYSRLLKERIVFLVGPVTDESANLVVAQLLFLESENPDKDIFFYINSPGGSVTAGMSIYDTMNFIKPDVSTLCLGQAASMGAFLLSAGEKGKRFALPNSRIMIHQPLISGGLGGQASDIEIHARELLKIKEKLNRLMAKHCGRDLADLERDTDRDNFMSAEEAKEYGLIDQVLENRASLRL
T2 sequence (P0A6G7 whole entry): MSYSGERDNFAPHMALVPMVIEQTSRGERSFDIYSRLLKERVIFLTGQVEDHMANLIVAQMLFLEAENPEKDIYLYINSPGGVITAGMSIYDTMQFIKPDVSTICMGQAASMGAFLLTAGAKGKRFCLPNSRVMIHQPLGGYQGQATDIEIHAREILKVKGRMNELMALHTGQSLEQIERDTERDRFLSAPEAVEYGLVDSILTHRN

Activity [1] | Activity (Streptococcus pneumoniae) | Activity [2] | EC50 [3] | EC50 [4] | Structure (SMILES) | MIC (Neisseria gonorrhoeae [8]) | MIC (Neisseria gonorrhoeae [9]) | MIC (Neisseria gonorrhoeae [10]) | MIC (Neisseria gonorrhoeae [11]) | MIC (Neisseria gonorrhoeae [12]) | MIC (Neisseria gonorrhoeae [13]) | MIC (Neisseria gonorrhoeae [14]) | MIC (Neisseria gonorrhoeae [15]) | MIC (Neisseria gonorrhoeae [16]) | MIC (Neisseria gonorrhoeae [17]) | MIC (Neisseria gonorrhoeae [18]) | MIC (Neisseria gonorrhoeae [19]) | MIC (Neisseria meningitidis [20]) | MIC (Neisseria meningitidis [21]) | MIC (Neisseria meningitidis [22]) | other results
inactive | inactive | inactive | 7.23 µM | 3.39 µM | CC(C)(C(=O)NCCSc1ccccc1Br)P(=O)(c1ccc(C(F)(F)F)cc1)c1ccc(C(F)(F)F)cc1 | – | – | – | – | – | – | – | – | – | – | – | – | – | – | – | –
– | – | – | 4.51 µM | 3.28 µM | CC(C)(C(=O)NCCSc1ccccc1C(F)(F)F)P(=O)(c1ccc(C(F)(F)F)cc1)c1ccc(C(F)(F)F)cc1 | – | – | – | – | – | – | – | – | – | – | – | – | – | – | – | –
– | – | – | 4.77 µM | 1.58 µM | CC(C)(C(=O)NCCSc1ccccc1Cl)P(=O)(c1ccc(C(F)(F)F)cc1)c1ccc(C(F)(F)F)cc1 | – | – | – | – | – | – | – | – | – | – | – | – | – | – | – | –

The next lines start with the compound.

Structure (SMILES) | Activity [1] | Activity (Streptococcus pneumoniae) | Activity [2] | EC50 [3] | EC50 [4] | MIC (Neisseria gonorrhoeae [8]) | MIC (Neisseria gonorrhoeae [9]) | MIC (Neisseria gonorrhoeae [10]) | MIC (Neisseria gonorrhoeae [11]) | MIC (Neisseria gonorrhoeae [12]) | MIC (Neisseria gonorrhoeae [13]) | MIC (Neisseria gonorrhoeae [14]) | MIC (Neisseria gonorrhoeae [15]) | MIC (Neisseria gonorrhoeae [16]) | MIC (Neisseria gonorrhoeae [17]) | MIC (Neisseria gonorrhoeae [18]) | MIC (Neisseria gonorrhoeae [19]) | MIC (Neisseria meningitidis [20]) | MIC (Neisseria meningitidis [21]) | MIC (Neisseria meningitidis [22]) | other results
CC(C)(C(=O)NCCSc1ccccc1C(F)(F)F)P(=O)(c1ccccn1)c1ccccn1 | inactive | inactive | inactive | 2.3 µM | 5.1 µM | – | – | – | – | – | – | – | – | – | – | – | – | – | – | – | –
CC(C)(C(=O)NCCSc1ccccc1C(F)(F)F)P(=O)(c1ccc(C(F)(F)F)cn1)c1ccc(C(F)(F)F)cn1 | inactive | inactive | inactive | 0.2 µM | 0.16 µM | 1.6 µM (≈ 1.01 µg/mL) | 1.6 µM (≈ 1.01 µg/mL) | 1.6 µM (≈ 1.01 µg/mL) | 1.6 µM (≈ 1.01 µg/mL) | 1.6 µM (≈ 1.01 µg/mL) | 1.6 µM (≈ 1.01 µg/mL) | 1.6 µM (≈ 1.01 µg/mL) | 1.6 µM (≈ 1.01 µg/mL) | 3.1 µM (≈ 1.95 µg/mL) | 1.6 µM (≈ 1.01 µg/mL) | 3.1 µM (≈ 1.95 µg/mL) | 2.4 µM (≈ 1.51 µg/mL) | 0.3 µM (≈ 0.189 µg/mL) | 3.1 µM (≈ 1.95 µg/mL) | 13.8 µM (≈ 8.69 µg/mL) | Kd [5]: 0.27 µM; Kd [6]: 0.69 µM; Activity [7]: Non-Toxic; MIC (Neisseria meningitidis [23]): 18.8 µM (≈ 11.8 µg/mL); MIC (Neisseria meningitidis [24]): 25 µM (≈ 15.7 µg/mL); MIC (Neisseria meningitidis [25]): 50 µM (≈ 31.5 µg/mL); MIC (Neisseria meningitidis [26]): 18.8 µM (≈ 11.8 µg/mL); MIC (Neisseria meningitidis [27]): 25 µM (≈ 15.7 µg/mL); MIC (Neisseria meningitidis [28]): 123 µM (≈ 77.4 µg/mL); MIC (Neisseria meningitidis [29]): 18.8 µM (≈ 11.8 µg/mL); MIC (Neisseria meningitidis [30]): 18.8 µM (≈ 11.8 µg/mL)
CCC/C=C/C=C/C(=O)N[C@@H](Cc1cc(F)cc(F)c1)C(=O)N[C@@H]1C(=O)N2CCC[C@H]2C(=O)N2CCCC[C@H]2C(=O)N[C@@H](C)C(=O)N2C[C@H](C)C[C@H]2C(=O)O[C@H]1C (X1-[Phe(3,5-F2)][aThr]P[Pip]A[Pro(4R-Me)]; ester 2-C) | – | – | – | 4.69 µM | 0.23 µM | 0.3 µM (≈ 0.239 µg/mL) | 1.6 µM (≈ 1.28 µg/mL) | 0.3 µM (≈ 0.239 µg/mL) | 0.3 µM (≈ 0.239 µg/mL) | 0.3 µM (≈ 0.239 µg/mL) | 0.3 µM (≈ 0.239 µg/mL) | 0.3 µM (≈ 0.239 µg/mL) | 4.7 µM (≈ 3.75 µg/mL) | 3.1 µM (≈ 2.47 µg/mL) | 0.3 µM (≈ 0.239 µg/mL) | 0.3 µM (≈ 0.239 µg/mL) | 0.3 µM (≈ 0.239 µg/mL) | < 0.3 µM | > 25 µM | < 0.3 µM | MIC (Neisseria meningitidis [23]): 0.3 µM (≈ 0.239 µg/mL); MIC (Neisseria meningitidis [24]): 0.3 µM (≈ 0.239 µg/mL); MIC (Neisseria meningitidis [25]): 1.6 µM (≈ 1.28 µg/mL); MIC (Neisseria meningitidis [26]): 0.3 µM (≈ 0.239 µg/mL); MIC (Neisseria meningitidis [27]): 0.3 µM (≈ 0.239 µg/mL); MIC (Neisseria meningitidis [28]): < 0.3 µM; MIC (Neisseria meningitidis [29]): 2.4 µM (≈ 1.91 µg/mL); MIC (Neisseria meningitidis [30]): 0.3 µM (≈ 0.239 µg/mL)

— ChEMBL document CHEMBL5579889, “Structure-Based Design and Development of Phosphine Oxides as a Novel Chemotype for Antibiotics that Dysregulate Bacterial ClpP Proteases” (J Med Chem, 2024)
